Test system: wheat
Assay: Field experiment 2, Zn impregnation on urea, wheat 2018 (Example 5)
Format: in vivo, wheat (SY 120)
Set-up: WG (weight of grains): unit not given here

## NC(N)=O [Urea 200]
Wheat grain yield, Pergamino 2018
  Yield: 5136.4 kg ha^−1
wheat, Z25, Pergamino 2018
  Dry M Z25 (initial dry matter): 2450.0
wheat, Z65, Pergamino 2018
  Coverage and Intercep. Z65: 91.7
  NDVI GS 65 (Green seeker): 0.40
  Plant height: 75.0 cm
  Spad Z65 (green intensity): 40.8 Spad units
wheat, Z65, index 1 minimum 5 maximum
  Vigor Z65 (1-5): 3.9
wheat, Zn impregnation on Urea, Pergamino 2018
  Plants m^−2 (number of emerged plants): 239.0 m^−2
wheat, harvest, Pergamino 2018
  NG m^−2 (number of grains): 16410.1 m^−2
  WG (weight of grains): 31.3
